Results taken from the Kinase Knowledgebase extract (Sharma et al. 2016).

biological target: ROCK2 (human) (UniProt O75116); experiment: Assessment of ROCK2 Kinase Activity
Sequence (O75116 whole entry, looked up): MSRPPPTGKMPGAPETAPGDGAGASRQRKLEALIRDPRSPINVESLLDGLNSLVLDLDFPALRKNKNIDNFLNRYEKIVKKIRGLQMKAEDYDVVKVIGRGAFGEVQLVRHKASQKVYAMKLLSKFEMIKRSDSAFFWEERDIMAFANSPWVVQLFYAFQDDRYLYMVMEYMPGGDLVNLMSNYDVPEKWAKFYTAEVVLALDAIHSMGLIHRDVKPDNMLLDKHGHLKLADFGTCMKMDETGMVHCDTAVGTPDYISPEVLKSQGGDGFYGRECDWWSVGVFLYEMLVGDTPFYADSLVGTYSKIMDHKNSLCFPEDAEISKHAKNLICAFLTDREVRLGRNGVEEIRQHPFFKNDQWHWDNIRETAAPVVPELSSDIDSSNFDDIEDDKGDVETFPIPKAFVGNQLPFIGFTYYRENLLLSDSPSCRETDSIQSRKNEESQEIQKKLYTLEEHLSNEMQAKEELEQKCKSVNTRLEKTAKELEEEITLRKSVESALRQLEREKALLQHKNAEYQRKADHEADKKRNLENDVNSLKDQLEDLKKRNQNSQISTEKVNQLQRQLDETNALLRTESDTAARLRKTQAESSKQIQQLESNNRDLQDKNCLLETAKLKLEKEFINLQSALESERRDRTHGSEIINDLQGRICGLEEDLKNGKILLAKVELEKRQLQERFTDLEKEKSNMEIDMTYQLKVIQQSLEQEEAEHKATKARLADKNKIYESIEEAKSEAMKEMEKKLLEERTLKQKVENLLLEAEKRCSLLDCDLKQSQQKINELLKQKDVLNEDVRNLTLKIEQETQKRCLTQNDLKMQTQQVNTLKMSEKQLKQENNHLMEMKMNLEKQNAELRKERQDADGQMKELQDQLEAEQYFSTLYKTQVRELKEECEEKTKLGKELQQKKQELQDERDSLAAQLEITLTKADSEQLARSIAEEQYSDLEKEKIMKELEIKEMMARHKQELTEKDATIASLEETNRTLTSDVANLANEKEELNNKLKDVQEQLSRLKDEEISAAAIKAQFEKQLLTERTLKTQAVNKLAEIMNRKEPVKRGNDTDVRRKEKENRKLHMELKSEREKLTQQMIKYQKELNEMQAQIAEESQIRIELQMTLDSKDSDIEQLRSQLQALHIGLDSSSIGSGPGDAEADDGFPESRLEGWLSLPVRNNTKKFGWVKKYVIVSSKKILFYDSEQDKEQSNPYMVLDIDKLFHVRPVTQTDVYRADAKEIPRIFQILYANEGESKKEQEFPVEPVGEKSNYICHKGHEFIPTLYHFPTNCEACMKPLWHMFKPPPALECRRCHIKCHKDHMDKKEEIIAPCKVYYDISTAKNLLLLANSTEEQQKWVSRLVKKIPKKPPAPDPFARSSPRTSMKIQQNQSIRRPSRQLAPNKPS

SMILES | IC50
COc1cccc(CNC(=O)c2nn(CC3CC3)c3cc(-c4ccnc(N)n4)ccc23)c1 | < 100 nM
Cc1ccccc1CNC(=O)c1n[nH]c2cc(-c3cn[nH]c3)ccc12 | < 100 nM
COc1cccc(CNC(=O)c2cc3ccc(-c4c[nH]nc4C)nc3[nH]2)c1 | < 100 nM
COc1cccc(CNC(=O)c2[nH]c3cc(-c4cn[nH]c4)ccc3c2CN(C)Cc2ccccc2)c1 | 100 to 1000 nM
COc1cccc(CN(CCN(C)C)C(=O)c2nn(CC3CC3)c3cc(-c4cn[nH]c4)ccc23)c1 | < 100 nM
COc1cccc(CN(C)C(=O)c2cn(CCCO)c3cc(-c4cn[nH]c4)ccc23)c1 | < 100 nM
COc1cccc(CNC(=O)c2cn(-c3cccc(C(F)(F)F)c3)c3cc(-c4cn[nH]c4)ccc23)c1 | 100 to 1000 nM
O=C(NCc1ccccc1)c1cnc2cc(-c3cn[nH]c3)ccn12 | < 100 nM
CCCn1nc(C(=O)NCc2cccc(OC)c2)c2ccc(-c3cn[nH]c3)cc21 | < 100 nM
COc1cccc(CNC(=O)c2cc3ccc(-c4cn[nH]c4)nc3n2CCN2CCCC2)c1 | < 100 nM
O=C(NCC1CCCCC1)c1c[nH]c2cc(-c3cn[nH]c3)ccc12 | < 100 nM
COc1cccc([C@@H](C)NC(=O)c2cn(CCN3CCCC3)c3cc(-c4cn[nH]c4)ccc23)c1 | < 100 nM
COc1ccccc1CNC(=O)c1cn(CCCO)c2cc(-c3cn[nH]c3)ccc12 | < 100 nM
COc1ccccc1CNC(=O)c1n[nH]c2cc(-c3cn[nH]c3)ccc12 | < 100 nM
COc1cccc(CNC(=O)c2cn3cc(-c4ccnc(N)n4)ccc3n2)c1 | 100 to 1000 nM
COc1cccc(CNC(=O)c2nn(CCN(C)C)c3cc(-c4ccncc4)ccc23)c1 | < 100 nM
COc1cccc(CNC(=O)c2c3ccc(-c4ccnc(N)n4)cc3nn2CC2CC2)c1 | 100 to 1000 nM
COc1cccc(CNC(=O)c2cn(CCN3CCCC3)c3cc(-c4cn[nH]c4)ccc23)c1 | < 100 nM
O=C(NCCc1cccnc1)c1c[nH]c2cc(-c3cn[nH]c3)ccc12 | 100 to 1000 nM
COc1cccc(CNC(=O)c2[nH]c3cc(-c4cn[nH]c4)ccc3c2CN2CCCC2c2ccccc2)c1 (configuration not stated) | 100 to 1000 nM
COc1cccc(CNC(=O)c2cc3ccc(-c4cn[nH]c4)nc3n2CCCO)c1 | < 100 nM

Results, then the molecule that gave them:

IC50 | SMILES
< 100 nM | COc1cccc(CN(C(=O)c2cc3ccc(-c4cn[nH]c4)nc3[nH]2)C2CC2)c1
< 100 nM | COc1cccc(CN(CCN(C)C)C(=O)c2cn3cc(-c4cn[nH]c4)ccc3n2)c1
< 100 nM | COc1cccc(CNC(=O)c2nn(C)c3cc(-c4cn[nH]c4)ccc23)c1
< 100 nM | COc1cccc(CN(CCCN(C)C)C(=O)c2cn(C)c3cc(-c4cn[nH]c4)ccc23)c1
< 100 nM | COc1ccc2c(c1)CC(c1cc(=O)n3cc(-c4cn[nH]c4)ccc3n1)CO2 (configuration not stated)
100 to 1000 nM | COc1cccc(CNC(=O)c2cn3cc(-c4cn[nH]c4)ccc3n2)c1
100 to 1000 nM | COc1ccc(CNC(=O)c2c[nH]c3cc(-c4cn[nH]c4)ccc23)cc1
< 100 nM | COc1cccc(CNC(=O)c2[nH]c3cc(-c4cn[nH]c4)ccc3c2CN2CCN(C)CC2)c1
< 100 nM | COc1cccc(CN(CC2CC2)C(=O)c2n[nH]c3cc(-c4cn[nH]c4)ccc23)c1
< 100 nM | COc1cccc(CN(C)C(=O)c2cc3ccc(-c4cn[nH]c4)cc3[nH]2)c1
< 100 nM | COc1cccc(CN(CCN(C)C)C(=O)c2cc3ccc(-c4cn[nH]c4)nc3[nH]2)c1
< 100 nM | COc1cccc(CN(CCCN2CCN(C)CC2)C(=O)c2cc3ccc(-c4cn[nH]c4)nc3[nH]2)c1
< 100 nM | COc1cccc(CN(CCN(C)C)C(=O)c2cnc3cc(-c4cn[nH]c4)ccn23)c1
< 100 nM | COc1cccc(CN(CCN2CCCC2)C(=O)c2cc3ccc(-c4cn[nH]c4)nc3[nH]2)c1
< 100 nM | COc1cccc(CNC(=O)c2cn(C)c3cc(-c4cn[nH]c4)ccc23)c1
< 100 nM | COc1cccc(CCNC(=O)c2n[nH]c3cc(-c4cn[nH]c4)ccc23)c1

IC50 | SMILES
< 100 nM | COc1cccc(CN(C)C(=O)c2n[nH]c3cc(-c4cn[nH]c4)ccc23)c1
< 100 nM | COc1cccc(CNC(=O)c2nn(CCN(C)C)c3cc(-c4cn[nH]c4)ccc23)c1
< 100 nM | COc1cccc(CN(CCN(C)C)C(=O)c2n[nH]c3cc(-c4cn[nH]c4)ccc23)c1
< 100 nM | COc1cccc(CNC(=O)c2c[nH]c3cc(-c4cn[nH]c4)ccc23)c1
< 100 nM | COc1cccc(CNC(=O)c2cc3ccc(-c4cn[nH]c4)cc3[nH]2)c1
100 to 1000 nM | COc1cccc(CCNC(=O)c2cn(CCN(C)C)c3cc(-c4cn[nH]c4)ccc23)c1
< 100 nM | COc1cccc(CN(C)C(=O)c2cc3ccc(-c4cn[nH]c4)nc3[nH]2)c1
< 100 nM | COc1cccc(CNC(=O)c2n[nH]c3cc(-c4cn[nH]c4)ccc23)c1
100 to 1000 nM | COc1cccc(CNC(=O)c2c3ccc(-c4cn[nH]c4)cc3nn2CC2CC2)c1
< 100 nM | COc1cccc(CNC(=O)c2cnc3cc(-c4cn[nH]c4)ccn23)c1
< 100 nM | COc1cccc(CN(CCN2CCCC2)C(=O)c2cc3ccc(-c4cn[nH]c4)cc3[nH]2)c1
100 to 1000 nM | COc1ccc2c(c1)CC(c1cc(=O)n3cc(-c4ccncc4)ccc3n1)CO2 (configuration not stated)
< 100 nM | COc1cccc(CNC(=O)c2cc3ccc(-c4cn[nH]c4)nc3[nH]2)c1
< 100 nM | COc1cccc(CNC(=O)c2cc3ccc(-c4cn[nH]c4)nc3n2C)c1
< 100 nM | COc1cccc(CNC(=O)c2cc3ccc(-c4cn[nH]c4)cc3n2CCCO)c1
